Results published in patent US20230133118A1, “COMPOSITIONS AND METHODS FOR TREATING CANCER” (Adagene AG, priority 2020, published 2023).

Columns and labels:
CD137 receptor = test: Cellular NFκB reporter gene assay (CD137-expressing NFκB-Luc Jurkat reporter cells); format: cell-based, human; settings: functional cellular NFκB reporter gene assay
Procedure: (§1) The CD137-expressing NFκB-Luc Jurkat reporter cells were stimulated with the anti-CD137 antibodies in the absence (left panel) or presence (right panel) of co-cultured CHO-K1 cell expressing human FcγRIIb. Luciferase activity was measured by bioluminescence assay.

CD137 [1] = test: Binding to recombinant CD137 and CD137 on activated T cells; design: species or system human
Text: (§2) This was expected given that CD137 is known to function as a co-stimulatory T cell receptor. […] This property might prevent the potential of dual independent activation of CD137 potentially accounting for its distinct pharmacology and toxicology profile among this class of therapeutic antibodies.

LLC-CD20 cells = test: LLC-CD20 lung cancer model, ADG106 with rituximab; format: in vivo, C57BL/6 mice; settings: 10 mg/kg i.p. twice a week for 3 weeks
Text: C57BL/6 mice (n=6 per group, female, 6-8 weeks old) were transplanted subcutaneously with 5×10^5 LLC-CD20 cells, a Lewis lung cancer cell line expressing CD20. […] Tumor growth was monitored twice weekly and reported as mean tumor volume ±SEM over time.

4T1 breast cancer cells [2] = test: 4T1 breast cancer model, ADG106 with ADG116; format: in vivo, BALB/c mice; settings: ADG106 5 mg/kg, ADG116 2 mg/kg i.p. twice a week for 2 weeks
Text: (§3) Tumor growth was monitored twice weekly and is reported as mean tumor volume ±SEM over time.

[3] = system: 3LL (JCRB) murine lung cancer cells; test: 3LL lung cancer model, ADG106 with atezolizumab; format: in vivo, C57BL/6 mice; settings: 10 mg/kg i.p. twice a week for 3 weeks
Text: C57BL/6 mice (n=10 per group, female, 6-8 weeks old) were inoculated subcutaneously with 3LL (JCRB) murine lung cancer cells, a Lewis lung cancer cell line.

human blood = test: Cytokine release in human blood ex vivo; format: cell-based
CD137 [4] = target: T1, CD137 (Homo sapiens, UniProt Q07011); test: Receptor occupancy calculated from drug plasma concentration and KD
[5] = GLP repeat-dose toxicity and safety pharmacology in cynomolgus monkeys; format: in vivo, cynomolgus monkey
[6] = target: CD137 / CD137 ligand (4-1BBL) (Homo sapiens, UniProt Q07011); test: Blocking of CD137 / CD137 ligand interaction; format: binding
Text: as §2

[7] = system: peripheral CD4+ and CD8+ T cells; test: Ki-67 expression on peripheral T cells of patients by flow cytometry; format: in vivo, human
Text: T cell proliferation was examined by analyzing Ki-67 expression using flow cytometry analysis. Soluble CD137 (sCD137) levels in plasma were also examined using a validated MSD-based electrochemiluminescence assay.

Lewis lung cancer cells [8] = test: Lewis lung cancer model, ADG106 with cisplatin; format: in vivo, C57BL/6 mice; settings: 5 mg/kg i.p.
Text: C57BL/6 mice (n=8 per group, female, 6-8 weeks old) were transplanted subcutaneously with 5×10^5 Lewis lung cancer cells. […] Tumor growth was monitored twice weekly and reported as mean tumor volume ±SEM over time.

[9] = system: L5178-R murine T cell lymphoma; test: L5178-R murine T cell lymphoma syngeneic model; format: in vivo, DBA/2 mice; settings: 20 mg/kg i.p. once every 3 days
Text: (§4) The animals were randomized and treatment started when tumor volumes reach 50-80 mm^3, or on the day of cell inoculation (FIGS. 17A and 17C). Each group consisted of 8 tumor-bearing mice. […] Tumor growth and animal body weight were monitored every 2-3 days.

4T1 breast cancer cells [10] = test: 4T1 breast cancer model, ADG106 with docetaxel; format: in vivo, BALB/c mice; settings: 5 mg/kg; ADG106 i.p. twice a week 4 doses, Docetaxel i.v. once a week 3 doses
Text: as §3

[11] = system: L5178-S murine T cell lymphoma; test: L5178-S murine T cell lymphoma syngeneic model; format: in vivo, DBA/2 mice; settings: 20 mg/kg i.p. once every 3 days
Text: as §4

CD137 [12] = target: T1, CD137; test: Cellular NFκB reporter gene assay (CD137-expressing NFκB-Luc Jurkat reporter cells); format: cell-based; design: expressed in transfected cells; host or cells: NFκB-Luc Jurkat reporter cells (with or without co-cultured CHO-K1 cells expressing human FcγRIIb)
Procedure: as §1

Lewis lung cancer cells [13] = test: Lewis lung cancer model, ADG106 with anti-PD-1 antibody 2E5; format: in vivo, C57BL/6 mice; settings: 5 mg/kg i.p. twice a week for 2 weeks
Text: C57BL16 mice (n=8 per group, female, 6-8 weeks old) were transplanted subcutaneously with 5×10^5 Lewis lung cancer cells. […] Tumor growth was monitored twice weekly and reported as mean tumor volume ±SEM over time.

T1 sequence (Q07011 24-255): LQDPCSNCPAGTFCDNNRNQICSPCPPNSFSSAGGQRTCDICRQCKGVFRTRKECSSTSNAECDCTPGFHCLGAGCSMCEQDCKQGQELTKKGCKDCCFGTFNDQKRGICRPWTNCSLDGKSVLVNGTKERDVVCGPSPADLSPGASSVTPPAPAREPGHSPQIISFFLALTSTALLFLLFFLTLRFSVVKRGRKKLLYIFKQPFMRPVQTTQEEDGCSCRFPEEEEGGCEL
Chain of CD137 / CD137 ligand (4-1BBL) (Q07011 24-255): as above

For “ADG106: fully human agonistic anti-CD137 monoclonal IgG4 antibody; heavy chain SEQ ID NO: 10, light chain SEQ ID NO: 11”, the “potency to activate recombinant human, monkey, mouse, and rat CD137 receptors” value (CD137 receptor) was “comparable nanomolar potency”, the “affinity to CD137 on activated cynomolgus monkey and human T cells” value (CD137 [1]) was “low nanomolar affinity” and the “tumor growth, single agent” value (LLC-CD20 cells) was “only weakly inhibited tumor growth”. For the same substance, the “anti-tumor activity, monotherapy” value (4T1 breast cancer cells [2]) was “showed anti-tumor activity”, the “anti-tumor activity, monotherapy” value [3] was “showed anti-tumor activity” and the “cytokine (IL-2, IL-4, IL-6, IL-10, TNF-α, IFN-γ, IL-17) release” value (human blood) was “did not stimulate cytokine”. The Receptor occupancy (CD137 [4]; 0.03 mg/kg) was 58%, the Receptor occupancy (CD137 [4]; 0.1 mg/kg) was 82% and the Receptor occupancy (CD137 [4]; 0.3 mg/kg) was 93%. The “Calculated Receptor Occupancy” value (CD137 [4]; 1 mg/kg) was 98%, the “NOAEL and HNSTD” value ([5]; cynomolgus monkey, in vivo) was greater than 200 mg/kg and the “NOEL and NOAEL” value ([5]; once weekly IV infusion up to 29 days) was 200 mg/kg. The “blocking of the interaction of CD137 to the CD137 ligand (4-1BBL)” value [6] was “fully blocks”, the “increase in the frequency of Ki-67+CD4+ T cells” value ([7]; patient R011) was “increased about one fold” and the “increase in the frequency of proliferating CD8+ T cells” value ([7]; patient R011) was “four to five fold increase”. The “total CD8+ T cells expressing Ki-67 at peak” value ([7]; patient R011, 21 days after infusion) was roughly 25%, the “anti-tumor activity, monotherapy” value (Lewis lung cancer cells [8]) was “showed anti-tumor activity” and the antitumor activity [9] was “resistant to ADG106 treatment”. For the same substance, the “anti-tumor activity, mono-therapy” value (4T1 breast cancer cells [10]) was “marginal anti-tumor activity”, the antitumor activity [11] was “has antitumor activity” and the “concentration saturating activation of CD137 receptor signaling” value (CD137 [12]; crosslinking-dependent, in vitro) was 1 µg/mL. The “EC80 of NFκB signaling activation” value (CD137 [12]; nonlinearly regressed concentration-effect curve) was no more than 1.8 µg/mL, the “human CD137 agonism following crosslinking” value (CD137 [12]; with crosslinking) was “function as agonists” and the “tumor growth, single agent” value (Lewis lung cancer cells [13]) was “significantly inhibit tumor growth”.
